ChEMBL document CHEMBL3638533, “4-carboxybenzylamino derivatives as histone deacetylase inhibitors” (2015)

Molecular target: Histone deacetylase 1 (Homo sapiens, UniProt Q13547)
Test: Flag Assay: Novel compounds were tested for their ability to inhibit histone deacetylase, subtype 1 (HDAC1) using an in vitro deacetylation assay. The enzyme source for this assay was an epitope-tagged human HDAC1 complex immuno-purified from stably expressing mammalian cells. The substrate consisted of a commercial product containing an acetylated lysine side chain (BIOMOL Research Laboratories, Inc., Plymouth Meeting, Pa.). Upon deacetylation of the substrate by incubation with the purified HDAC1 complex, a fluorophore is produced that is directly proportional to the level of deacetylation.

Chain of Histone deacetylase 1 (Q13547 whole entry): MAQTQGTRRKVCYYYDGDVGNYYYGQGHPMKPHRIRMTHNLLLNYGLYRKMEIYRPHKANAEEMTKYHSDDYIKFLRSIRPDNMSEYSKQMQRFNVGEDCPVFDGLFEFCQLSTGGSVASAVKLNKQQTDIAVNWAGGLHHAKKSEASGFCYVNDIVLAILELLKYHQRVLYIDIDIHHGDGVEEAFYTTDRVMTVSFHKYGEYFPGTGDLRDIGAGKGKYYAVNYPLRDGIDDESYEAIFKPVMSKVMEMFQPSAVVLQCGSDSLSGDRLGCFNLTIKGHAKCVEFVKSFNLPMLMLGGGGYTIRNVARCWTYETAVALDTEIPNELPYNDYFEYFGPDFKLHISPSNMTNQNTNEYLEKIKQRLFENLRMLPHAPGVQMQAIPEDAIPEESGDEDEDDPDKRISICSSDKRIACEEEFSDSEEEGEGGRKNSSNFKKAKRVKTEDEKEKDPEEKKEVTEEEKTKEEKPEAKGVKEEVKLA

IC50: 2.5 µM
Structure (SMILES): O=C(Nc1cc(-c2ccccc2)ccc1O)c1ccc(CNCCc2c[nH]cn2)cc1
